According to US20100197687A1, “Indoles Useful in the Treatment of Inflammation” (priority 2005, published 2010):
Structures can show the parent of a compound that is named as a salt.

target: T1, mPGES-1 (Homo sapiens, UniProt O14684); experiment: mPGES-1 biological test (conversion of PGH2 to PGE2, HPLC read-out); type: biochemical; conditions: mPGES-1 expressed in E. coli, membrane fraction; 25 min pre-incubation with inhibitor, 60 s with PGH2, room temperature; read-out: IC50 (inhibition of mPGES-1)
T1 construct: made in house; host or cells: E. coli
T1 sequence (O14684 1-152): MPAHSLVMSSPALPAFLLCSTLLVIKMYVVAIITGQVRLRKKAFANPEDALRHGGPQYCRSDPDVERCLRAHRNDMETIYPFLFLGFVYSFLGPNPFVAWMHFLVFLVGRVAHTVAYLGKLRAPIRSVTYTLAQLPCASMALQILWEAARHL
Method: In the assay mPGES-1 catalyses the reaction where the substrate PGH2 is converted to PGE2. mPGES-1 is expressed in E. coli and the membrane fraction is dissolved in 20 mM NaPi-buffer pH 8.0 and stored at −80° C. In the assay mPGES-1 is dissolved in 0.1M KPi-buffer pH 7.35 with 2.5 mM glutathione. The stop solution consists of H2O/MeCN (7/3), containing FeCl2 (25 mM) and HCl (0.15 M). The assay is performed at room temperature in 96-well plates. Analysis of the amount of PGE2 is performed with reversed phase HPLC (Waters 2795 equipped with a 3.9×150 mm C18 column). The mobile phase consists of H2O/MeCN (7/3), containing TFA (0.056%), and absorbance is measured at 195 nm with a Waters 2487 UV-detector.
The following is added chronologically to each well: • 1. 100 μL mPGES-1 in KPi-buffer with glutathione. Total protein concentration: 0.02 mg/mL. • 2. 1 μL inhibitor in DMSO. Incubation of the plate at room temperature for 25 minutes. • 3. 4 μL of a 0.25 mM PGH2 solution. Incubation of the plate at room temperature for 60 seconds. • 4. 100 μL stop solution. • 180 μL per sample is analyzed with HPLC.

SMILES	IC50
CC(C)(C)c1ccc(-c2ccc3c(c2)cc(CCC(=O)O)n3-c2ccc(OC3CCCC3)cc2)cc1 [Example 29, 3-[5-(4-tert-Butylphenyl)-1-(4-cyclopentyloxyphenyl)indol-2-yl]-propionic acid]	780 nM
CC(C)Oc1ccc(-n2c(C(=O)O)c(CN(C)C)c3cc(-c4ccc(C(C)(C)C)cc4)ccc32)cc1 [Example 8, 5-(4-tert-Butylphenyl)-3-dimethylaminomethyl-1-(4-isopropoxyphenyl)indole-2-carboxylic acid]	560 nM
CC(C)Oc1ccc(-n2c(C(=O)O)c(CNC(CO)CO)c3cc(-c4ccc(C(F)(F)F)cn4)ccc32)cc1 [Example 9, 3-[(1,3-dihydroxypropan-2-ylamino)methyl]-1-(4-isopropoxyphenyl)-5-(5-trifluoromethylpyridin-2-yl)indole-2-carboxylic acid dihydrochloride]	2100 nM
CC(C)Oc1ccc(-n2c(C(=O)O)c(CN3CCOCC3)c3cc(-c4ccc(C(C)(C)C)cc4)ccc32)cc1 [Example 2, 5-(4-tert-Butylphenyl)-1-(4-isopropoxyphenyl)-3-morpholin-4-ylmethylindole-2-carboxylic acid]	2600 nM
CC(C)Oc1ccc(-n2c(CC(=O)O)cc3cc(Oc4ccc(Cl)cc4)ccc32)cc1 [Example 32, [5-(4-Chlorophenoxy)-1-(4-isopropoxyphenyl)indol-2-yl]acetic acid]	3200 nM
